In paper PMC10669129 (2023):

Assays:
[1] = tested on: 5-HT-binding DNA aptamer (44-mer) (DNA, aptamer) CGACTGGTAGGCAGATAGGGGAAGCTGATTCGATGCGTGGGTCG; assay: single-frequency EIS; conditions: Mg2+ 2 mM, 1X PBS; some cross-reactivity; microfluidic flow; concentration not given
[2] = tested on: 5-HT-binding DNA aptamer (44-mer) (DNA, aptamer) CGACTGGTAGGCAGATAGGGGAAGCTGATTCGATGCGTGGGTCG; assay: square wave voltammetry; conditions: Mg2+ 2 mM, 1X PBS; apparent; 30 min exposure in 1X PBS; read in ferri/ferrocyanide 5 mM, pH 7.1; Hill fit
[3] = tested on: 5-HT-binding DNA aptamer (44-mer) (DNA, aptamer) CGACTGGTAGGCAGATAGGGGAAGCTGATTCGATGCGTGGGTCG; assay: electrochemical impedance spectroscopy; conditions: Mg2+ 2 mM, 1X PBS; apparent; 30 min exposure in 1X PBS; read in ferri/ferrocyanide 5 mM, pH 7.1; Hill fit
[4] = tested on: 5-HT-binding DNA aptamer (44-mer) (DNA, aptamer) CGACTGGTAGGCAGATAGGGGAAGCTGATTCGATGCGTGGGTCG; assay: EIS and SWV; single-frequency EIS; conditions: Mg2+ 2 mM, 1X PBS; selectivity test; highest concentration not given in text

## N[C@@H](Cc1c[nH]c2ccccc12)C(=O)O
[1]
  binding: weak

## N[C@@H](Cc1c[nH]c2ccc(O)cc12)C(=O)O
[1]
  binding: weak

## O=C(O)Cc1c[nH]c2ccc(O)cc12
[1]
  binding: weak

## NCCc1c[nH]c2ccc(O)cc12
[2]
  kd,eff: 306.76 ± 41.54 nM
[3]
  kd,eff: 343.54 ± 61.03 nM

## NC[C@H](O)c1ccc(O)c(O)c1
[4]
  binding: no

## NCCc1ccc(O)c(O)c1
[4]
  binding: no
